Test results: US5424456A, “N-arylalkylderivatives of 2-aminomethyl-2,3-dihydro-1,4-benzodioxine and the process of preparation thereof” (Vyzkumny Ustav Pro Farmacii A Biochemii s.p., priority 1991, dated 1995)

What was measured:
α-adrenergic [1] = test: α-adrenergic blocking activity, postdecapitation muscular contractions in rats; assay type: in vivo, rat; details: i.v., 4.6 mg/kg, 30 minutes prior to decapitation
Procedure: b) The α-adrenergic blocking activity of compounds VUFB 17951 and VUFB 17959 was also shown in the test of influencing the postdecapitation muscular contractions in rats. The test compounds were administered intravenously in the dose of 4.6 mg/kg for VUFB 17951 and […] for VUFB 17959.

α-adrenergic [2] = target: T1, α-adrenergic (Rattus norvegicus, UniProt P23944); test: α-adrenergic blocking activity, norepinephrine-induced contraction of helically cut rat aortic strip; details: 37° C., cumulative doses, read-out: IC50 (concentration causing 50% relaxation)
T1 construct: helically cut rat aortic strip; from tissue; host or cells: rat aorta (helically cut strip)
T1 sequence (P23944 1-561): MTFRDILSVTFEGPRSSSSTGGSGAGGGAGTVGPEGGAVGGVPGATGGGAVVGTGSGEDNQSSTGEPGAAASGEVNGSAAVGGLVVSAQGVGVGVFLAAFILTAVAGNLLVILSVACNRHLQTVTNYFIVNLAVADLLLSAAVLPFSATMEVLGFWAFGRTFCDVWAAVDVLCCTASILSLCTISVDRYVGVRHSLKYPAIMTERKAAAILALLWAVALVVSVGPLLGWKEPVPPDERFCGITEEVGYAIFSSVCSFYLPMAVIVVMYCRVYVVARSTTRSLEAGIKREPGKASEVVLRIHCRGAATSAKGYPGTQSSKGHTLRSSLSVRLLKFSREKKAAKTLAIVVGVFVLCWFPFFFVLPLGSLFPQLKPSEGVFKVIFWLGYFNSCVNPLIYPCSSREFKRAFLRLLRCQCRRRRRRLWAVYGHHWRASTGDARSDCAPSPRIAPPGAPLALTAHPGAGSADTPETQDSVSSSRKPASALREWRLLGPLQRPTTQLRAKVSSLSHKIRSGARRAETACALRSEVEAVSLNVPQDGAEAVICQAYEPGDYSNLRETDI
Procedure: a) The α-adrenergic blocking activity of the compounds was tested using a helically cut rat aortic strip in a Krebs-Henselheit solution at 37° C., bubbled with a mixture of 95% O2 and 5% CO2. Norepinephrine induced contractions were detected isometrically. The compounds were added in cumulative doses and the relaxing activity was expressed in per cents of the maximum norepinephrine contraction.

[3] = tested on: urinary bladder sphincter; test: Effect on the opening pressure of the urinary bladder sphincter; assay type: in vivo, rat; details: rats, compared with prazosin or terazosin
intraocular pressure = test: Effect on the intraocular pressure; assay type: in vivo, rabbit; details: rabbits, topical intraocular administration
blood pressure [4] = test: Hypotensive activity, pentobarbital anaesthesized rabbits; assay type: in vivo, rabbit
From the text: (§1) a) The blood pressure of pentobarbital anaesthesized rabbits was registered invasively in arteria femoralis. The average decrease in systolic (SBP) and diastolic (DBP) blood pressure expressed in per cents of the starting blood pressure level after intravenous and oral administration is shown in Tables 3 and 4.

blood pressure [5] = test: Hypotensive activity, pentobarbital anaesthesized dogs; assay type: in vivo, dog
From the text: as §1, with “b) The” for “a) The”, “anaesthesized dogs” for “anaesthesized rabbits”, “(SBP) arid” for “(SBP) and”, “Tables 5” for “Tables 3”, “and 6.” for “and 4.”

[6] = p.o., 5.0 mg/kg, value 1 of 5 (heads 30/60/120/180 min)
[7] = p.o., 5.0 mg/kg, value 2 of 5 (heads 30/60/120/180 min)
[8] = p.o., 5.0 mg/kg, value 3 of 5 (heads 30/60/120/180 min)
[9] = p.o., 5.0 mg/kg, value 4 of 5 (heads 30/60/120/180 min)
[10] = p.o., 5.0 mg/kg, value 5 of 5 (heads 30/60/120/180 min)
[11] = p.o., 10.0 mg/kg, value 1 of 5 (heads 30/60/120/180 min)
[12] = p.o., 10.0 mg/kg, value 2 of 5 (heads 30/60/120/180 min)
[13] = p.o., 10.0 mg/kg, value 3 of 5 (heads 30/60/120/180 min)
[14] = p.o., 10.0 mg/kg, value 4 of 5 (heads 30/60/120/180 min)
[15] = p.o., 10.0 mg/kg, value 5 of 5 (heads 30/60/120/180 min)
[16] = i.v., 0.46 mg/kg, value 1 of 5 (heads 5/30/60/180 min; probably 1 min)
[17] = i.v., 0.46 mg/kg, value 2 of 5 (heads 5/30/60/180 min; probably 5 min)
[18] = i.v., 0.46 mg/kg, value 3 of 5 (heads 5/30/60/180 min; probably 30 min)
[19] = i.v., 0.46 mg/kg, value 4 of 5 (heads 5/30/60/180 min; probably 60 min)
[20] = i.v., 0.46 mg/kg, value 5 of 5 (heads 5/30/60/180 min; probably 180 min)
[21] = i.v., 4.6 mg/kg, value 1 of 5 (heads 5/30/60/180 min; probably 1 min)
[22] = i.v., 4.6 mg/kg, value 2 of 5 (heads 5/30/60/180 min; probably 5 min)
[23] = i.v., 4.6 mg/kg, value 3 of 5 (heads 5/30/60/180 min; probably 30 min)
[24] = i.v., 4.6 mg/kg, value 4 of 5 (heads 5/30/60/180 min; probably 60 min)
[25] = i.v., 4.6 mg/kg, value 5 of 5 (heads 5/30/60/180 min; probably 180 min)

COc1ccc(C(C#N)(CCCNCC2COc3ccccc3O2)C(C)C)cc1OC (racemic) [VUFB 17951, 5-(2,3-Dihydro-1,4-benzodioxin-2-ylmethylamino)-2-(3,4-dimethoxyphenyl)-2-isopropyl valeronitrile]
decrease in number of postdecapitation contractions (α-adrenergic [1]): highly significant decrease in number of postdecapitation contractions
IC50 (α-adrenergic [2]): 6 µM
duration of action on opening pressure of the urinary bladder sphincter [3]: longer duration of action
lowering of the opening pressure of the urinary bladder sphincter ([3]; corresponding doses): lowered the opening pressure of the urinary bladder sphincter of rats in corresponding doses in the same extent as prazosin
lowering of the intraocular pressure (intraocular pressure): lowered significantly the intraocular pressure
decrease in diastolic blood pressure (DBP) (blood pressure [4]; i.v., 0.2 mg/kg, 1 min): -36 per cents
decrease in systolic blood pressure (SBP) (blood pressure [4]; i.v., 0.2 mg/kg, 1 min): -28 per cents
decrease in diastolic blood pressure (DBP) (blood pressure [4]; i.v., 0.2 mg/kg, 5 min): -23 per cents
decrease in systolic blood pressure (SBP) (blood pressure [4]; i.v., 0.2 mg/kg, 5 min): -24 per cents
decrease in diastolic blood pressure (DBP) (blood pressure [4]; i.v., 0.2 mg/kg, 30 min): -24 per cents
decrease in systolic blood pressure (SBP) (blood pressure [4]; i.v., 0.2 mg/kg, 30 min): -25 per cents
decrease in diastolic blood pressure (DBP) (blood pressure [4]; i.v., 0.2 mg/kg, 60 min): -16 per cents
decrease in systolic blood pressure (SBP) (blood pressure [4]; i.v., 0.2 mg/kg, 60 min): -18 per cents
decrease in diastolic blood pressure (DBP) (blood pressure [4]; i.v., 0.2 mg/kg, 180 min): -17 per cents
decrease in systolic blood pressure (SBP) (blood pressure [4]; i.v., 0.2 mg/kg, 180 min): -13 per cents
decrease in diastolic blood pressure (DBP) (blood pressure [4]; i.v., 1.0 mg/kg, 1 min): -56 per cents
decrease in systolic blood pressure (SBP) (blood pressure [4]; i.v., 1.0 mg/kg, 1 min): -47 per cents
decrease in diastolic blood pressure (DBP) (blood pressure [4]; i.v., 1.0 mg/kg, 5 min): -36 per cents
decrease in systolic blood pressure (SBP) (blood pressure [4]; i.v., 1.0 mg/kg, 5 min): -39 per cents
decrease in diastolic blood pressure (DBP) (blood pressure [4]; i.v., 1.0 mg/kg, 30 min): -30 per cents
decrease in systolic blood pressure (SBP) (blood pressure [4]; i.v., 1.0 mg/kg, 30 min): -35 per cents
decrease in diastolic blood pressure (DBP) (blood pressure [4]; i.v., 1.0 mg/kg, 60 min): -33 per cents
decrease in systolic blood pressure (SBP) (blood pressure [4]; i.v., 1.0 mg/kg, 60 min): -35 per cents
decrease in diastolic blood pressure (DBP) (blood pressure [4]; i.v., 1.0 mg/kg, 180 min): -24 per cents
decrease in systolic blood pressure (SBP) (blood pressure [4]; i.v., 1.0 mg/kg, 180 min): -17 per cents
decrease in diastolic blood pressure (DBP) (blood pressure [4]; [6]): -6 per cents
decrease in systolic blood pressure (SBP) (blood pressure [4]; [6]): -6 per cents
decrease in diastolic blood pressure (DBP) (blood pressure [4]; [7]): -12 per cents
decrease in systolic blood pressure (SBP) (blood pressure [4]; [7]): -14 per cents
decrease in diastolic blood pressure (DBP) (blood pressure [4]; [8]): -18 per cents
decrease in systolic blood pressure (SBP) (blood pressure [4]; [8]): -17 per cents
decrease in diastolic blood pressure (DBP) (blood pressure [4]; [9]): -18 per cents
decrease in systolic blood pressure (SBP) (blood pressure [4]; [9]): -13 per cents
decrease in diastolic blood pressure (DBP) (blood pressure [4]; [10]): -18 per cents
decrease in systolic blood pressure (SBP) (blood pressure [4]; [10]): -15 per cents
decrease in diastolic blood pressure (DBP) (blood pressure [4]; [11]): -6 per cents
decrease in systolic blood pressure (SBP) (blood pressure [4]; [11]): -5 per cents
decrease in diastolic blood pressure (DBP) (blood pressure [4]; [12]): -11 per cents
decrease in systolic blood pressure (SBP) (blood pressure [4]; [12]): -9 per cents
decrease in diastolic blood pressure (DBP) (blood pressure [4]; [13]): -18 per cents
decrease in systolic blood pressure (SBP) (blood pressure [4]; [13]): -12 per cents
decrease in diastolic blood pressure (DBP) (blood pressure [4]; [14]): -20 per cents
decrease in systolic blood pressure (SBP) (blood pressure [4]; [14]): -13 per cents
decrease in diastolic blood pressure (DBP) (blood pressure [4]; [15]): -17 per cents
decrease in systolic blood pressure (SBP) (blood pressure [4]; [15]): -12 per cents
decrease in diastolic blood pressure (DBP) (blood pressure [5]; [16]): -52 per cents
decrease in systolic blood pressure (SBP) (blood pressure [5]; [16]): -46 per cents
decrease in diastolic blood pressure (DBP) (blood pressure [5]; [17]): -46 per cents
decrease in systolic blood pressure (SBP) (blood pressure [5]; [17]): -47 per cents
decrease in diastolic blood pressure (DBP) (blood pressure [5]; [18]): -40 per cents
decrease in systolic blood pressure (SBP) (blood pressure [5]; [18]): -41 per cents
decrease in diastolic blood pressure (DBP) (blood pressure [5]; [19]): -36 per cents
decrease in systolic blood pressure (SBP) (blood pressure [5]; [19]): -41 per cents
decrease in diastolic blood pressure (DBP) (blood pressure [5]; [20]): -28 per cents
decrease in systolic blood pressure (SBP) (blood pressure [5]; [20]): -26 per cents
decrease in diastolic blood pressure (DBP) (blood pressure [5]; [21]): -53 per cents
decrease in systolic blood pressure (SBP) (blood pressure [5]; [21]): -46 per cents
decrease in diastolic blood pressure (DBP) (blood pressure [5]; [22]): -49 per cents
decrease in systolic blood pressure (SBP) (blood pressure [5]; [22]): -48 per cents
decrease in diastolic blood pressure (DBP) (blood pressure [5]; [23]): -47 per cents
decrease in systolic blood pressure (SBP) (blood pressure [5]; [23]): -42 per cents
decrease in diastolic blood pressure (DBP) (blood pressure [5]; [24]): -42 per cents
decrease in systolic blood pressure (SBP) (blood pressure [5]; [24]): -40 per cents
decrease in diastolic blood pressure (DBP) (blood pressure [5]; [25]): -34 per cents
decrease in systolic blood pressure (SBP) (blood pressure [5]; [25]): -31 per cents
decrease in diastolic blood pressure (DBP) (blood pressure [5]; p.o., 4.6 mg/kg, 15 min): -9 per cents
decrease in systolic blood pressure (SBP) (blood pressure [5]; p.o., 4.6 mg/kg, 15 min): -9 per cents
decrease in diastolic blood pressure (DBP) (blood pressure [5]; p.o., 4.6 mg/kg, 30 min): -11 per cents
decrease in systolic blood pressure (SBP) (blood pressure [5]; p.o., 4.6 mg/kg, 30 min): -11 per cents
decrease in diastolic blood pressure (DBP) (blood pressure [5]; p.o., 4.6 mg/kg, 60 min): -13 per cents
decrease in systolic blood pressure (SBP) (blood pressure [5]; p.o., 4.6 mg/kg, 60 min): -14 per cents
decrease in diastolic blood pressure (DBP) (blood pressure [5]; p.o., 4.6 mg/kg, 120 min): -14 per cents
decrease in systolic blood pressure (SBP) (blood pressure [5]; p.o., 4.6 mg/kg, 120 min): -19 per cents
decrease in diastolic blood pressure (DBP) (blood pressure [5]; p.o., 4.6 mg/kg, 300 min): -19 per cents
decrease in systolic blood pressure (SBP) (blood pressure [5]; p.o., 4.6 mg/kg, 300 min): -24 per cents
